Experimental data published in PMC11784145, “Efficacy and in vitro pharmacological assessment of novel N-hydroxypyridinediones as hepatitis B virus ribonuclease H inhibitors” (Antimicrobial Agents and Chemotherapy, 2024).
Several values for one entry are separate records, joined by “and”; a condition that tells them apart may be missing. Equal values may be shown once.

Tests used:
[1] = target: T1, human ribonuclease H1 (huRNase H1) (Homo sapiens, UniProt O60930); assay: Human RNase H1 inhibition, fluorescent biochemical assay
T1 construct: made in house; host or cells: Escherichia coli
T1 sequence (O60930 1-286): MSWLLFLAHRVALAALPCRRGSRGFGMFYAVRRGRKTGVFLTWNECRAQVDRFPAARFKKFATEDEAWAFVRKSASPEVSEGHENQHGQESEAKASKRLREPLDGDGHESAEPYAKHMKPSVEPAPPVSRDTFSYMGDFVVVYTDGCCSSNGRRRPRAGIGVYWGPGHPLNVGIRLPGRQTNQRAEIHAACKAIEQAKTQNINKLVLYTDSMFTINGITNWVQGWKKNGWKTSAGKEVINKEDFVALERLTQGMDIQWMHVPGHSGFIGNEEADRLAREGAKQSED
Experimental: Recombinant human ribonuclease H1 (huRNase H1) was expressed in Escherichia coli and purified by nickel affinity chromatography, as described previously ([30]). […] The heteroduplex substrate was prepared, as described by Ponzar et al. ([30]). Reactions were initiated by the addition of MgCl2 (5 mM final) and were performed on a Biotek Synergy HTX multi-mode plate reader at 28°C.
Maximum rates of fluorescence increase were calculated using the Biotek Gen5 v3.15 software and percentage activity was determined for each compound concentration by subtracting rates from no enzyme reactions and normalizing to DMSO reactions. […] Reactions were performed at least three times on separate days.

[2] = Solubility limit, turbidimetric assay; type: physicochemical; settings: upper limit 200 µM
Experimental: Solubility limits were determined by a turbidimetric assay, as described ([27]), with the solubility limit being defined as the compound concentration where light scattering began to rise. Two or more replicate assays were performed for each compound at each pH on different days.

CYP3A4 mRNA expression = assay: CYP3A4 induction, RT-qPCR in HepG2 cells; settings: 10 µM, 24 or 48 h, normalized to GAPDH and DMSO
Experimental: HepG2 cells were seeded on 12-well, tissue-culture-treated plates (Sarstedt) at 2.5 × 10^5 cells/well for 24 h. Cells were treated with 10 µM compound or 1% DMSO for 48 h with replenishment at 24 h. Cells were rinsed with PBS and lysed at 0, 24, and 48 h using TRI Reagent (Sigma Aldrich). […] Cellular DNA was degraded using DNase I (Invitrogen), according to the manufacturer’s instructions.
Complementary DNA (cDNA) synthesis employed the ProtoScript II First Strand cDNA Synthesis Kit (New England Biolabs) according to the manufacturer’s instructions with an additional incubation step at 25°C for 5 min. Reverse transcriptase-qPCR (RT-qPCR) was performed using a Quantstudio 5 (Thermo Fisher) in a final reaction volume of 20 µL with 4 µL cDNA template, 2× KAPA probe force master mix (Roche), 300 nM probe, and 100 nM forward and reverse primer. CYP3A4 expression was determined by normalizing the experimental sample cycle threshold values to DMSO-treated wells. GAPDH was used as a housekeeping gene.

HepDES19 cells = settings: read-out: HepDES19 CC50; 72 h, MTS; highest concentration tested 100 µM; mean ± SD
[3] = test system: HBV replication (HBV plus-polarity DNA strand); assay: HBV replication inhibition, strand preferential qPCR in hepDES19 cells; type: cell-based, hepatitis B virus; settings: for EC50: 72 h exposure, HBV plus-polarity strand suppression, highest concentration tested 100 µM, mean ± SD, read-out: HepDES19 EC50
Experimental: HBV replication inhibition was measured in hepDES19 cells following 72 h compound exposure without compound replenishment. EC50 values were determined by HBV plus-polarity strand suppression using a strand preferential qPCR assay, as described previously ([28]). Three or more replicate values were obtained on different days.

[4] = Parallel artificial membrane permeability assay (PAMPA); type: in vitro ADME
Experimental: Compound Papp values were determined by normalizing the experimental compound absorbance to the compounds’ absorbances at equilibrium, membrane porosity, buffer volume, and time (s). Two or more replicate assays were obtained on separate days for each pH.

Microsome stability = type: in vitro ADME, human
MDCK-MDR1 cells = assay: MDCK-MDR1 permeability assay; type: in vitro ADME; settings: 10 µM compound, 2 h; for Efflux Ratio (Papp B-A/A-B): MDCK-MDR1 cells, actively effluxed if >2
Experimental: MDCK-MDR1 cells were seeded on 96-well, high protein binding immobilon-P membrane plates (Millipore Sigma) at 2.4 × 10^4 cells per well for 4 days. Media were then decanted, and the cells were equilibrated with Hanks balanced salt solution (HBSS) supplemented with 10 mM CaCl2 and 1 mM MgCl2 for 1 h. Compound (10 µM) was then added to the apical side to assess active transport and to the basolateral side to assess active efflux. The cells were incubated with compound for 2 h with shaking at 37°C. Samples (50 µL) were retrieved from the recipient wells and mixed with 150 µL acetonitrile (ACN) and internal standard (1:1 of 200 ng/mL chloridazon:enalapril). Samples were pelleted at 4,000 × g and the supernatant was analyzed by liquid-chromatography/tandem mass spectrometry (LCMS/MS) analyses. […]. Active efflux was determined by Papp B/A/Papp A/B.
Tight junction formation was assessed by lucifer yellow permeation immediately following sample retrieval. Briefly, lucifer yellow (10 µM) was added to the apical wells and HBSS was added to the basolateral wells for 1 h with shaking at 37°C, after which sample was collected from the basolateral side and read on a Biotek Synergy HTX multi-mode plate reader with 485/20 excitation and 520/20 emission filters defined by the Center Wavelength/band-pass values. The percent lucifer yellow fluorescence was determined by subtracting the HBSS relative fluorescent units (RFU) from the sample RFU and normalizing to the lucifer yellow positive control RFU. Lucifer yellow permeation was determined to be acceptable if ≤3%.

plasma proteins = assay: Plasma protein binding, rapid equilibrium dialysis; type: in vitro ADME, bovine; settings: 10 µM compound, DMEM-F12 with 10% FBS (0.25 mg/mL BSA), 4 h, 37°C
Experimental: Plasma protein binding was performed using the Pierce rapid equilibrium dialysis device (Thermo Fisher) per the manufacturer’s instructions, as described ([27]). Briefly, the sample wells contained DMEM-F12 supplemented with 10% FBS spiked with 10 µM compound, and the buffer wells contained phosphate-buffered saline (PBS). The plate was incubated for 4 h at 37°C with shaking, after which 50 µL was retrieved from the buffer and sample wells and added to ice-cold acetonitrile and the internal standard described above. Samples were matrix-matched with PBS supplemented with 10% FBS or PBS alone, respectively, and centrifuged at 4,000 × g for 5 min to pellet plasma proteins. The supernatants were analyzed by LCMS/MS and percent compound bound was determined, as described previously ([27]).

CYP2C9 = target: T2, CYP2C9 (Homo sapiens, UniProt P11712); assay: Cytochrome P450 inhibition, Vivid 2C9 BOMF Green kit; type: in vitro ADME; settings: 10 µM compound
T2 construct: purchased Thermo Fisher Vivid 2C9 BOMF Green
Experimental: (§1) Compound inhibition of Cytochrome P (CYP) 3A4, 2C9, and 2D6 was determined using Vivid CYP450 screening kits (Thermo Fisher) according to the manufacturer’s instructions, as described previously ([27]). The kits employed were: Vivid 3A4 DBOMF Green, 2C9 BOMF Green, and 2D6 EOMCC Blue. Reactions were initiated by addition of the fluorophore-conjugated substrates with Vivid NADP^+ and were conducted at 37°C using either a Biotek Synergy HTX multi-mode plate reader with 485/20 nm excitation and 520/20 nm emission filters (green-fluorescent substrate), or a Tecan Spark plate reader with monochromator settings at 415/20 nm excitation and 460/20 nm emission (blue-fluorescent substrate) defined by the Center Wavelength/band-pass values. Substrate cleavage was detected every 60 s.
(§2) Compounds were initially screened against each enzyme at 10 µM and maximum rates of fluorescence in RFU were calculated using the Biotek Gen5 v3.11 software. Percent inhibition of experimental compound reactions was normalized to the rate to DMSO vehicle reactions. Positive controls used were: CYP3A4—ketoconazole (Sigma Aldrich), CYP2C9—sulfaphenazole (Cayman Chemical), and CYP2D6—quinidine (Fisher Scientific). […] IC50 values were determined using the four-parameter log[inhibitor] versus response algorithm in GraphPad Prism. […]

CYP3A4 = target: T3, CYP3A4 (Homo sapiens, UniProt P08684); assay: Cytochrome P450 inhibition, Vivid 3A4 DBOMF Green kit; type: in vitro ADME; settings: 10 µM compound
T3 construct: purchased Thermo Fisher Vivid 3A4 DBOMF Green
Experimental: as §1, §2

[5] = pH 5 (fed simulated intestinal fluid)
[6] = pH 6.5 (fasted simulated intestinal fluid)
[7] = human liver microsomes, 1 µM compound, 30 min, NADPH

T2 sequence (P11712 whole entry): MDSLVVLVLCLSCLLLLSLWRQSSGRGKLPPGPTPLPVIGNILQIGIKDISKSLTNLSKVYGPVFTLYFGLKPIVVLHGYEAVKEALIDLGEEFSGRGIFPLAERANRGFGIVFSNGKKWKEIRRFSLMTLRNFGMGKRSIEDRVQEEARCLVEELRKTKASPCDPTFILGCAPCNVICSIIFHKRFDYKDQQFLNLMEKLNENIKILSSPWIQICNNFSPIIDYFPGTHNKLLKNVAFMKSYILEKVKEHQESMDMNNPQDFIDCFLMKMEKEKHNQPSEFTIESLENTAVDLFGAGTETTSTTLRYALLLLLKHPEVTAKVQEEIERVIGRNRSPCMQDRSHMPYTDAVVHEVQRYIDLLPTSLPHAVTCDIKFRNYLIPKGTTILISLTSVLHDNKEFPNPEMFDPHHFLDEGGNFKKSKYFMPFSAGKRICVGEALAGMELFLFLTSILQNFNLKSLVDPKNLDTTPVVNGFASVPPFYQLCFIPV
T3 sequence (P08684 whole entry): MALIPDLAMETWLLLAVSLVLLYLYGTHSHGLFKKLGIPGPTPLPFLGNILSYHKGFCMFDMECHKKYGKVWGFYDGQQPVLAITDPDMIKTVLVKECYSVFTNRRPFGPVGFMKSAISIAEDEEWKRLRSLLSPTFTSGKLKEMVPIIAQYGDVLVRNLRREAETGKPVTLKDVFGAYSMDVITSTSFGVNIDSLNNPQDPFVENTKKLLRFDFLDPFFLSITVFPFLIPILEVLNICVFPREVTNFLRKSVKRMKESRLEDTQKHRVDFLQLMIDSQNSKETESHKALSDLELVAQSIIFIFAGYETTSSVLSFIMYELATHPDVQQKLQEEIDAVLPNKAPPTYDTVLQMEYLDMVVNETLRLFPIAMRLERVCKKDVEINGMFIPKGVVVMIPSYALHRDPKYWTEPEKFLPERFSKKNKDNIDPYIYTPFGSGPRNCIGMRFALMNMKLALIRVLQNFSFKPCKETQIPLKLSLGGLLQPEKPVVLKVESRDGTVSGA

SMILES: CC(=NOCc1cccc(C)c1)c1c(C)cc(=O)n(O)c1O [Compound 1620]
- Selectivity of HBV replication inhibition over huRNase H1 (huRNase H1 IC50 versus HBV EC50) [1]: at least 10 fold
- Average Sol (solubility limit) [2, 5]: > 200 µM
- Sol 1 (solubility limit) ([2]; pH 5, replicate 1): > 200 µM
- Sol 2 (solubility limit) ([2]; pH 5, replicate 2): > 200 µM
- Average Sol (solubility limit) [2, 6]: > 200 µM
- Sol 1 (solubility limit) ([2]; pH 6.5, replicate 1): > 200 µM
- Sol 2 (solubility limit) ([2]; pH 6.5, replicate 2): > 200 µM
- Average Sol (solubility limit) ([2]; pH 7.4 (DMEM-F12 with 10% FBS)): > 200 µM
- Sol 1 (solubility limit) ([2]; pH 7.4, replicate 1): > 200 µM
- Sol 2 (solubility limit) ([2]; pH 7.4, replicate 2): > 200 µM
- CYP3A4 mRNA expression increase (CYP3A4 mRNA expression): < 2 fold
- CC50 (HepDES19 cells): > 100 µM
- HepDES19 SI (CC50/EC50) [3]: 526
- EC50 [3]: 0.19 ± 0.087 µM
- Avg Papp (PAMPA) ([4]; FeSSIF pH 5): 18.9 ×10⁻⁶ cm/s
- Interpretation (PAMPA Papp) ([4]; FeSSIF pH 5): H (H: Papp > 1*10-6)
- Papp 1 (PAMPA) ([4]; FeSSIF pH 5, replicate 1): 22.9 ×10⁻⁶ cm/s
- Papp 2 (PAMPA) ([4]; FeSSIF pH 5, replicate 2): 14.9 ×10⁻⁶ cm/s
- Avg Papp (PAMPA) ([4]; pH 7.4): 1.38 ×10⁻⁶ cm/s
- Interpretation (PAMPA Papp) ([4]; pH 7.4): H (H: Papp > 1*10-6)
- Papp 1 (PAMPA) ([4]; pH 7.4, replicate 1): 1.38 ×10⁻⁶ cm/s
- Papp 2 (PAMPA) ([4]; pH 7.4, replicate 2): 1.38 ×10⁻⁶ cm/s
- Intrinsic clearance (Clint) rate category (Microsome stability; human liver microsomes): low (low Clint (µL/min/mg protein) rates (<8.6))
- Clearance (intrinsic clearance, Clint) (Microsome stability; [7]): 7.00 µL/min/mg
- Half-life (Microsome stability; [7]): >30 min
- MDCK-MDR1 Papp category, apical to basolateral (A-B) (MDCK-MDR1 cells): high (high (≥1*10^−6 cm/s))
- MDCK-MDR1 Papp category, basolateral to apical (B-A) (MDCK-MDR1 cells): high (high (≥1*10^−6 cm/s))
- Efflux Ratio (Papp B-A/A-B) (MDCK-MDR1 cells): 1.39
- Percent bound (plasma proteins): 85.8 ± 13.2%

SMILES: CC(=NOCc1ccc(OCc2ccc3ccccc3c2)cc1)c1c(C)cc(=O)n(O)c1O [Compound 1899]
- Average Sol (solubility limit) [2, 5]: > 200 µM
- Sol 1 (solubility limit) ([2]; pH 5, replicate 1): > 200 µM
- Sol 2 (solubility limit) ([2]; pH 5, replicate 2): > 200 µM
- Average Sol (solubility limit) [2, 6]: > 200 µM
- Sol 1 (solubility limit) ([2]; pH 6.5, replicate 1): > 200 µM
- Sol 2 (solubility limit) ([2]; pH 6.5, replicate 2): > 200 µM
- Average Sol (solubility limit) ([2]; pH 7.4 (DMEM-F12 with 10% FBS)): > 200 µM
- Sol 1 (solubility limit) ([2]; pH 7.4, replicate 1): > 200 µM
- Sol 2 (solubility limit) ([2]; pH 7.4, replicate 2): > 200 µM
- CC50 (HepDES19 cells): 68.6 ± 24.3 µM
- HepDES19 SI (CC50/EC50) [3]: 40.7
- EC50 [3]: 1.92 ± 0.7 µM
- Percent inhibition of CYP2C9 (CYP2C9): 46%
- Avg Papp (PAMPA) ([4]; FeSSIF pH 5): 5.61 ×10⁻⁶ cm/s
- Interpretation (PAMPA Papp) ([4]; FeSSIF pH 5): H (H: Papp > 1*10-6)
- Papp 1 (PAMPA) ([4]; FeSSIF pH 5, replicate 1): 6.93 ×10⁻⁶ cm/s
- Papp 2 (PAMPA) ([4]; FeSSIF pH 5, replicate 2): 4.29 ×10⁻⁶ cm/s
- Papp 1 (PAMPA) ([4]; PAMPA, pH 7.4): 2.28 ×10⁻⁶ cm/s
- Avg Papp (PAMPA) ([4]; pH 7.4): 1.84 ×10⁻⁶ cm/s
- Interpretation (PAMPA Papp) ([4]; pH 7.4): H (H: Papp > 1*10-6)
- Papp 2 (PAMPA) ([4]; pH 7.4, replicate 2): 1.08 ×10⁻⁶ cm/s
- Papp 3 (PAMPA) ([4]; pH 7.4, replicate 3): 2.16 ×10⁻⁶ cm/s
- Clearance (intrinsic clearance, Clint) (Microsome stability; human, microsomes): 35.6 µL/min/mg
- Half-life (Microsome stability; human, microsomes): 29.6 min
- Percent inhibition of CYP3A4 (CYP3A4): ~ 42%
- Efflux Ratio (Papp B-A/A-B) (MDCK-MDR1 cells): 2.28 and > 2
